The record followed here is patent US10889573B2, “Anthelmintic quinoline-3-carboxamide derivatives” (Bayer Animal Health GMBH, priority 2016, dated 2021).

The subject of one data set is Haemonchus contortus. The settings on record: 120 h, read-out: activity (larval mortality).
Data set [1] has as its system Nippostrongylus brasiliensis. The data set is described as follows: In vitro assay 2: Nippostrongylus brasiliensis (NIPOBR), acetylcholine esterase readout. The settings on record: read-out: activity (reduction of AChE compared to negative control); for inhibition at 1 µg/mL: 1 μg/ml. The method in brief:
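Readout was acetylcholine esterase activity released into the medium, compared with negative control, after exposing adult worms to compounds at final 10 ppm (10 μg/ml) or 1 ppm (1 μg/ml). Worms were first washed in antibiotic/amphotericin B-containing saline; compounds were dissolved in DMSO.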

Data set [2] deals with Dirofilaria immitis microfilariae. The experiment in a line: In vitro assay 3: Dirofilaria immitis microfilariae (DIROIM L1), motility. The settings on record: 72 h, read-out: EC50 (reduction of motility), 72 h incubation.
The test system of a further data set is Cooperia curticei. The note with it: Cooperia curticei, 120 h, read-out: activity (larval mortality).
In data set [3] the test system is Litomosoides sigmodontis third-stage larvae. The note with it: 72 h, read-out: EC50 (reduction of motility).
Procedure: In Vitro Assay 5: Litomosoides sigmodontis (LTMOSI L3)
10 Litomosoides sigmodontis third-stage larvae, which were freshly isolated from the pleural cavity of an infected rodent, were added to wells of a microtitre plate containing a nutrient medium and the test compound in DMSO. Compounds were tested in concentration-response assay in duplicate. Larvae exposed to DMSO and no test compounds were used as negative controls. Larvae were evaluated after 72 h of incubation with the compound. Efficacy was determined as the reduction of motility in comparison to the negative control. Based on the evaluation of a wide concentration range, concentration-response curves as well as EC50-values were calculated.
Data set [4] in a line: log P by HPLC on reversed phase columns (Method L0).
Another data set concerns the target C. elegans Slo-1a (Caenorhabditis elegans, UniProt Q95V25). The note with it: pE50 (negative decadic logarithm of EC50), CHO cells expressing C. elegans Slo-1a, voltage sensitive dye.
Data set [5] relates to Dirofilaria immitis third-stage larvae. The data set is described as follows: In vitro assay 4: Dirofilaria immitis (DIROIM L4), motility. The note with it: 72 h, read-out: EC50 (reduction of motility).

pEC50: −log10 of the molar value.

C. elegans Slo-1a, sequence (Q95V25 whole entry): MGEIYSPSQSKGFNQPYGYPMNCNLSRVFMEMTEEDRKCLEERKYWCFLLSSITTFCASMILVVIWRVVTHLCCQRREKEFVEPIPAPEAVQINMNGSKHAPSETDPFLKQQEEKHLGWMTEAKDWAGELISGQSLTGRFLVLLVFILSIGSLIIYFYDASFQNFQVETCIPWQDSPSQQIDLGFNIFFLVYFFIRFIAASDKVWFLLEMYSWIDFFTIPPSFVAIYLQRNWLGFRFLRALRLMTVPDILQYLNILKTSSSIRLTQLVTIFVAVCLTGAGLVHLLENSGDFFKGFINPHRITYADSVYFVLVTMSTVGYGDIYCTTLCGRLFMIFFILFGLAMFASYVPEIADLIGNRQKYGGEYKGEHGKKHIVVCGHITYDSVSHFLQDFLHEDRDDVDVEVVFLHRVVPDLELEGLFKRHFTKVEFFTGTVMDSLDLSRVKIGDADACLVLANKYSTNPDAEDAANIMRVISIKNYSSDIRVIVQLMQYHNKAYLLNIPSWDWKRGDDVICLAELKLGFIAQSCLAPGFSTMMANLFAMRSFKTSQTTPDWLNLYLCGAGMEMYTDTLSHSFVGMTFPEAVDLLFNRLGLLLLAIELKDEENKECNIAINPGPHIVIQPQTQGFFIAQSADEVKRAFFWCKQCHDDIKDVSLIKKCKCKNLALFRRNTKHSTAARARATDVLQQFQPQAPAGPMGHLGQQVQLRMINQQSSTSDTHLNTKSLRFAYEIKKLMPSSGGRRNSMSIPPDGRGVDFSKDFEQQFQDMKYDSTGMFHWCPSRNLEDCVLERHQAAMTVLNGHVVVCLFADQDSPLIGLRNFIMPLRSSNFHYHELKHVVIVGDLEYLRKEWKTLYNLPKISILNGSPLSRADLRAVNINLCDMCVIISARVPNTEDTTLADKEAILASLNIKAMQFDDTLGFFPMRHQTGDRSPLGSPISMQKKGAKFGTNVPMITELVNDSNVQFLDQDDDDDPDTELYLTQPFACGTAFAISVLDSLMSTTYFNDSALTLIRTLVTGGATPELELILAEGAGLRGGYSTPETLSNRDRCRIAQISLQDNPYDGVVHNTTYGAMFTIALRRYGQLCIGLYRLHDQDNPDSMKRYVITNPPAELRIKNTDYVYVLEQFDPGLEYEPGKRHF
Procedure for Cooperia curticei: In Vitro Assay 6: Cooperia curticei (COOPCU L3)
Solvent: dimethyl sulfoxide
Approximately 40 nematode larvae (Cooperia curticei) are transferred into a test tube containing the compound solution.
After 5 days percentage of larval mortality is recorded. 100% efficacy means all larvae are killed; 0% efficacy means no larvae are killed.
Procedure for Haemonchus contortus: In Vitro Assay 7: Haemonchus contortus (HAEMCO L3)
Solvent: dimethyl sulfoxide
Approximately 40 larvae of the red stomach worm (Haemonchus contortus) are transferred into a test tube containing compound solution.
After 5 days the percentage of larval mortality is recorded. 100% efficacy means all larvae are killed, 0% efficacy means no larvae are killed.

As to `CCc1c(C(=O)N[C@H]2CCOc3ccccc32)cnc2c(-c3cc(Cl)cc(Cl)c3)cccc12` [Example 350, 8-(3,5-dichlorophenyl)-N-[(4S)-3,4-dihydro-2H-chromen-4-yl]-4-ethyl quino-line-3-carboxamide], the mortality at 4 ppm in the data set with Haemonchus contortus and with Cooperia curticei was 100% in each case. Also, the mortality at 20 ppm in the data set with Haemonchus contortus and with Cooperia curticei was 100% in each case. The inhibition at 1 µg/mL in data set [1] is over 80%. For the same compound, the EC50 in data set [2], in data set [3] and in data set [5] was under 0.1 µg/mL in each case. For the same compound, the chromatographic logP (usually a lipophilicity value derived from retention on a column) in data set [4] amounted to 5.06. Also, at C. elegans Slo-1a, the pEC50 (commonly the negative decadic logarithm of the EC50, by convention in mol/L) was over 8.50.
Consider `O=C(N[C@H]1CCOc2ccccc21)c1cnc2c(-c3cc(Cl)cc(Cl)c3)cccc2c1N1CC(F)(F)C1` [Example 394], for which the mortality – broadly, the percentage killed – at 4 ppm with Haemonchus contortus turned out to be 80%. The mortality at 20 ppm in the data set with Haemonchus contortus and in the data set with Cooperia curticei was 80% throughout. For the same compound, the inhibition at 1 µg/mL in data set [1] is over 80%. Further, the EC50 in data set [2], in data set [3] and in data set [5] was under 0.1 µg/mL each time. At C. elegans Slo-1a, this compound showed a pEC50 of 7.50 to 8.50.
Take `O=C(N[C@H]1CCOc2ccccc21)c1cnc2c(-c3cc(Cl)cc(Cl)c3)cccc2c1N1CCOCC1` [Example 17]: the mortality at 4 ppm with Haemonchus contortus and in the data set with Cooperia curticei was 100% throughout. Moreover, the mortality at 20 ppm in the data set on Haemonchus contortus and in the data set on Cooperia curticei was 100% each time. Further, the inhibition at 1 µg/mL in data set [1] was over 80%. In data set [1] (10 μg/ml), the inhibition at 10 µg/mL is over 80%. In addition, the EC50 in data set [2], in data set [3] and in data set [5] was under 0.1 µg/mL each time. At C. elegans Slo-1a, the pEC50 was over 8.50.
